The record followed here is patent US20030044946A1 (priority 2001, published 2003).

One data set relates to aconitase. The data set can be described thus: aconitase inactivation after treatment of yeast cells. The note with it: wild type cells; 1 μM antimycin A or 1 mM paraquat; data not shown. The data set is classed as cell-based, Saccharomyces cerevisiae. As for the experimental part:
Cells were inoculated at an OD600 of 0.1 in SDC medium and harvested at the indicated times. Whole cell extracts were obtained by glass bead lysis under argon in 50 mM Tris 7.2, 150 mM NaCl, 5 mM EDTA, and 0.2 mM PMSF with an equal volume of 0.5 mm acid washed glass beads, and vortexing for 6 cycles of 30 seconds followed by 2 minutes of cooling. After centrifugation, the supernatants were aliquoted, flash frozen, and stored at −70° C. Because of the instability of 4Fe4S clusters in air, the extraction procedures were performed as rapidly as possible, under an inert atmosphere (argon). Furthermore, aliquots kept at −70° C. were only thawed immediately before the assay. Aconitase activity was measured spectrophotometrically as described (S. Melov, et al., Science 289, 1567-9 (2000)). Briefly, the linear absorbance change at 240 nm (cis-aconitate disappearance) was followed in a reaction mixture containing 1 mM cis-aconitate, 0.5 M NaCl, and 0.1 M Tris 7.4. For iron-sulfur cluster reactivation experiments, 1 mM ferric sulfate and 1 mM sodium sulfide (Na2S) was added to the cuvette containing all the reagents required for the aconitase assay. Activity was measured as described above.

Data set [1] concerns wild type cells (strain DBY746).
The next data set relates to ras2Δ (EG252) cells. The following applies: ras2 mutants; paraquat 1 mM, 7-day treatment.

Where two headings read alike, the source gives them in different places.

With `C[n+]1ccc(-c2cc[n+](C)cc2)cc1` [paraquat], the effect on aconitase entry with aconitase is recorded as “reversibly inactivates aconitase”. Further, in data set [1], the “effect on survival (viability) of wild type cells” value was “early viability loss” and the “toxicity to wild type cells” value is given as “toxic”. In addition, in data set [1] (Saccharomyces cerevisiae), the “survival after paraquat treatment” value was 5%. Besides, the “initial viability retained after paraquat treatment” value in the data set on ras2Δ (EG252) cells is on record as “over 70%”. The “toxicity to sod2Δ mutants” value in the data set with sod2Δ mutants (effect on life span) was “particularly toxic”.

For the molecule antimycin A, the effect on aconitase entry in the data set on aconitase is recorded as “reversibly inactivates aconitase”. In data set [1], the “effect on survival (viability) of wild type cells” value is given as “early viability loss” and the “toxicity to wild type cells” value is listed as “toxic”. Also, the “toxicity to sod2Δ mutants” value in the data set on sod2Δ mutants was “particularly toxic”.
